Results as given in patent US20200022995A1, “Novel Immunodulating Small Molecules” (AyuVis Research, Inc., priority 2018, published 2020).
≈ marks a conversion by molar mass, not a printed value.

Experiments:
[1] = tested on: hyperoxia-induced lung injury in mice; assay: Hyperoxia induced ALI model; format: in vivo, C57BL/6 mice; conditions: IP, 10 mg/kg
Description: Male C57BL/6 mice (Jackson Laboratories,) 12-15 weeks old, 25-28 gms, housed up to 5 per cage were used.
Hyperoxia induced ALI model: The ARDS model consists of exposing adult mice in 100% oxygen for 48 h followed by injecting with test compounds. Adult mice (N=5) were housed in plexi chamber with a constant and continuous supply of 100% oxygen for 48 h. […] The mice were sacrificed after 48 h to harvest lung tissues and collect (BAL) fluid.

[2] = tested on: E. coli, P. aeruginosa, A. baumanni, MRSA; assay: Broth dilution assay against gram negative and gram positive bacteria; format: cell-based
hPBMC = assay: Cytotoxicity in hPBMC (MTT); format: cell-based, human; conditions: 0.1, 1.0, 10, 100 and 1000 μM, 24 h
Description: The cells were treated with compounds and incubated for 24 h. Cell viability was assessed using MTT cell proliferation kit (Promega). All the compounds were not toxic to hPMBC (FIG. 12).

TLR1/2 = molecular target: T1, TLR1/2 (Homo sapiens, UniProt O60603); assay: IL-6 ELISA in hPBMC with TLR1/2 ligand Pam3CSK4; format: cell-based; conditions: 0.1 μM to <1 μM, 24 h
T1 construct: downregulate the IL-6 protein level in hPBMC after 24 h; endogenous in cells; host or cells: hPBMC
T1 sequence (O60603 21-784): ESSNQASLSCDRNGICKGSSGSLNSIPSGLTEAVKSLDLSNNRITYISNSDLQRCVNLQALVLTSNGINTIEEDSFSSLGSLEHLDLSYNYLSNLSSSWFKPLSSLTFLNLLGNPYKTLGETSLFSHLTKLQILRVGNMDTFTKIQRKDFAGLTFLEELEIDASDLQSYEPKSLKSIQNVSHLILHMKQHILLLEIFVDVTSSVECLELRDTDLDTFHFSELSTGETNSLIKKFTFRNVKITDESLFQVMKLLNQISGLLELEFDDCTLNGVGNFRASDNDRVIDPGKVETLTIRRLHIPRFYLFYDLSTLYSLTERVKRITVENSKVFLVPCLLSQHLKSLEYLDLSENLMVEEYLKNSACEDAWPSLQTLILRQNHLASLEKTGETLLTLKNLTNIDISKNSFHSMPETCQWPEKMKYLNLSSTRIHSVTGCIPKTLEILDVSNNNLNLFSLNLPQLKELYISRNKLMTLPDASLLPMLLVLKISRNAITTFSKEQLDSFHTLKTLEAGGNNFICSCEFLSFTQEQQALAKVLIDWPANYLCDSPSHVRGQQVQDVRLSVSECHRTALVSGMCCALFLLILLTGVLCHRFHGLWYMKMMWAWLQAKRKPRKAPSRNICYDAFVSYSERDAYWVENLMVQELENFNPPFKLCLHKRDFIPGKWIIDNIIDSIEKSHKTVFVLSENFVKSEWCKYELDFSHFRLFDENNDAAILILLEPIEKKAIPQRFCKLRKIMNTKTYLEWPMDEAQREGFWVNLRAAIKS
Description: Compound 8 modulates the TLR1/2 activities in a concentration dependent manner.

TLR6 = molecular target: T2, TLR6 (Homo sapiens, UniProt Q9Y2C9); assay: IL-6 ELISA in hPBMC with TLR6 ligand Pam2CSK4; format: cell-based; conditions: 24 h
T2 construct: in combination with TLR6 ligand Pam2CSK4 in hPBMC after 24 h of treatment; endogenous in cells; host or cells: hPBMC
T2 sequence (Q9Y2C9 32-796): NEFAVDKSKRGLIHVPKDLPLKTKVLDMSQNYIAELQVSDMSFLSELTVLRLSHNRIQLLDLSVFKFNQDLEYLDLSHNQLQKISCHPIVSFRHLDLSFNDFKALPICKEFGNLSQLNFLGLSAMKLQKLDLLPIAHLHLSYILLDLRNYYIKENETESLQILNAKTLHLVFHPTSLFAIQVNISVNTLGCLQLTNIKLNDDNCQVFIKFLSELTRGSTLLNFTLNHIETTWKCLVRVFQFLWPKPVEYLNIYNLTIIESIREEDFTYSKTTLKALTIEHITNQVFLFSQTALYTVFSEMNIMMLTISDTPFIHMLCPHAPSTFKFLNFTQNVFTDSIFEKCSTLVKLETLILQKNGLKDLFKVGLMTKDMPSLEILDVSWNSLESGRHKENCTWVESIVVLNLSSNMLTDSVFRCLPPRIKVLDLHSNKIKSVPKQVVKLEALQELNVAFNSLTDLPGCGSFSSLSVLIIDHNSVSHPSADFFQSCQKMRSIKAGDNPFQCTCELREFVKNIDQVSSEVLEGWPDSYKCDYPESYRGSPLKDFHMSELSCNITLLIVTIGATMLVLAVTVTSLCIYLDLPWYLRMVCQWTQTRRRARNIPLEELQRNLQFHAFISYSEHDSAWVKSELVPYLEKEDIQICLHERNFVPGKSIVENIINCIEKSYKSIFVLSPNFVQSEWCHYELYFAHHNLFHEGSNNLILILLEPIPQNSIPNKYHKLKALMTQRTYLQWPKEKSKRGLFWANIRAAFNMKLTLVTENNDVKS
Description: Compound 8 stimulates the TLR6 activities and upregulates the production of IL-6 cytokine in combination with TLR6 ligand Pam2CSK4 in hPBMC after 24 h of treatment as detected by ELISA (FIG. 9).

HUVECs = assay: Anti-angiogenic activity, VEGF induced tube formation in HUVECs; format: cell-based, human; conditions: VEGF 100 ng/mL
Description: Selected TLR2/4 antagonist compounds 2, 6, 7, 8, 14, 17 and 32 were evaluated for anti-angiogenic activity using the Tube Formation kit (Cat #3470-096-K). VEGF (100 ng/mL) was used as positive control. These compounds have potential applications in diseases associated with pathological angiogenesis such as solid tumor, […], diabetic retinopathy as well as AMD.

TLR4 [3] = molecular target: T3, TLR4 (Homo sapiens, UniProt O00206); assay: TLR4 inhibitory and activating activity in THP-1 cells; format: cell-based; parameters: endogenous in cells; host or cells: THP-1 monocytes, PMA-stimulated
T3 sequence (O00206 24-839): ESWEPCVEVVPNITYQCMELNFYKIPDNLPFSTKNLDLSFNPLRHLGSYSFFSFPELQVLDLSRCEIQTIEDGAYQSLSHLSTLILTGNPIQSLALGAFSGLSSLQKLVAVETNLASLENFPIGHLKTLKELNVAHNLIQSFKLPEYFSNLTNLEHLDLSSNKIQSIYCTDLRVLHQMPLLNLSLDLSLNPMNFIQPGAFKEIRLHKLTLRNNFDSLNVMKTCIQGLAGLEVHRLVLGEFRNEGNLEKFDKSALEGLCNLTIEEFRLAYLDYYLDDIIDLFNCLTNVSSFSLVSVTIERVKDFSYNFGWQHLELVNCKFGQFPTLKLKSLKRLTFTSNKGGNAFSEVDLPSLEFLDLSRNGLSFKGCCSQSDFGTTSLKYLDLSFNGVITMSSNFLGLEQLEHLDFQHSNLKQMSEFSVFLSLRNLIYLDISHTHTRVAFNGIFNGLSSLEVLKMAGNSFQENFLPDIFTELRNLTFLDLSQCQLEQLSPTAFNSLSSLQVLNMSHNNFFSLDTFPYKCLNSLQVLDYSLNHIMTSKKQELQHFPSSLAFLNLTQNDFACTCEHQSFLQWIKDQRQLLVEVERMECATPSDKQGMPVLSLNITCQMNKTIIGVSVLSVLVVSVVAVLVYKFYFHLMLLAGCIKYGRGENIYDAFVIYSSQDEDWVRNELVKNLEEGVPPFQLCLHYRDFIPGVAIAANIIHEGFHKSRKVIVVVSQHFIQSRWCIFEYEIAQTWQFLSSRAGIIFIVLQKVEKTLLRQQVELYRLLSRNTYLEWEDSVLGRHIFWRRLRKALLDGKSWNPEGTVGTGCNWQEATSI

TLR4 [4] = molecular target: T3, TLR4; assay: IL-1β ELISA in hPBMC, alone or with TLR4 ligand LPS; format: cell-based; parameters: endogenous in cells
Description: Compound 8 modulates the TLR4 activities in a concentration dependent manner.

neonatal pups with BPD = assay: Hyperoxia mouse model of BPD (newborn pups); format: in vivo

## CC(=O)N[C@H]1[C@H](Oc2ccc([N+](=O)[O-])cc2)O[C@H](CO)[C@@H](O)[C@@H]1O [Compound 8, p-Nitrophenyl 2-acetamido-2-deoxy-β-D-glucopyranoside]
[1]; 100% oxygen 48 h
  protection against hyperoxia induced lung injury: significant protection
[1]; mice
  hyperoxia-induced lung inflammation: ameliorated
[2]; compound alone, range over the bacteria screened
  MIC90: 50 to 200 µg/mL (≈ 146 to 584 µM)
[2]; in combination with colistin
  MIC: 3.1 to 6.25 µg/mL
hPBMC
  cytotoxicity in hPBMC: not toxic
TLR1/2
  IL-6 protein level: downregulate
TLR6
  production of IL-6 cytokine: upregulates
HUVECs
  VEGF induced tube formation: significantly deceased
TLR4 [3]
  TLR2/4 antagonist or TLR4 agonist activity as shown in Table-1: potent TLR2/4 antagonists
TLR4 [4]; 0.1 μM to <1 μM, alone or with LPS, 24 h, ELISA
  IL-1β protein level: downregulate
TLR4 [4]; 1.0 μM, alone and with LPS
  production of IL-1β: significantly stimulated
Neonatal pups with BPD; IP and IV, saline solution, 5 mg/kg or 10 mg/kg on PN2 and PN4
  hyperoxia induced BPD in mouse pups: prevent
Neonatal pups with BPD; IP injection
  chord length, septal thickness and radial alveolar count of mouse lungs: improvement
Neonatal pups with BPD; after injection
  inflammatory cytokines in lung tissue and serum: decreased
